According to patent US20080039499A1, “Chemical Compounds” (priority 2004, published 2008):

System: MCP-1 Mediated Calcium Flux in THP-1 Cells
Assay: MCP-1 mediated calcium flux in THP-1 cells (FLIPR)
Assay type: cell-based, human
Conditions: stimulation of THP-1 cells; from dose response curves; read-out: approximate EC50 of hMCP-1 for rise in [Ca2+]i
Protocol: a) MCP-1 Mediated Calcium Flux in THP-1 Cells
The human monocytic cell line THP-1 was grown in a synthetic cell culture medium RPMI 1640 supplemented with 10% foetal calf serum, 6 mM glutainine and Penicillin-Streptomycin (at 50 IU/ml penicillin, 50 μg streptomycin/ml, Gibco BRL). THP-1 cells were washed in assay buffer comprising of HBSS with Ca^2+ and Mg^2+ (without phenol red) (Gibco BRL)+20 mM HEPES+0.71 mg/ml Propenecid+2 mls/litre CaCl2 1M (BDH)+0.3 mg/ml BSA (Sigma) pH 7.4 and resuspended in the same buffer at a density of 1×10^6 cells/ml. The cells were then loaded with assay buffer+[…] FLUO-4 (molecular probes) for 40 min at 37° C., washed twice in assay buffer, and resuspended at 2×10^5 cells/ml. 100 μl of the cell suspension was added to the wells of black clear-bottomed 96 well plates, to give 2×10^4 cells/well. Cells were pelleted by centrifugation and washed with assay buffer. 100 ul of buffer+50 ul of compound was added to wells and incubated for 20 mins at (37° C.). Fluorescence was recorded using a FLIPR (FLuorometric Imaging Plate Reader—Molecular Devices). Cells were stimulated by addition of hMCP-1 to the wells.
Stimulation of THP-1 cells with hMCP-1 induced a rapid, transient rise in [Ca^2+]i in a specific and dose dependent manner. Dose response curves indicated an approximate EC50 of 4 nm. […]

hMCP-1: human Monocyte chemoattractant protein-1, a C—C chemokine and CCR2 ligand, used to stimulate THP-1 cells
EC50: ~4 nM
